{"source": "patent US11857567B2", "about": "“Hypertonic pharmaceutical compositions containing an anti-platinum chemoprotectant agent” (Decibel Therapeutics, Inc., priority 2018, dated 2024)", "tested_on": "cisplatin-induced hearing loss in guinea pigs", "assay": "Hearing protection by locally delivered STS Composition from cisplatin challenge (ABR)", "type": "in vivo, guinea pig", "settings": "at both 24 kHz and 32 kHz", "text": "Historical ABR data were used to define a baseline. The animals were anesthetized with tiletamine hydrochloride and zolazepam hydrochloride (Zoletil). Acoustic stimuli were delivered via an earphone. Needle electrodes were placed near the ear canal at the causoventral position, the vertex of the skull, and a ground at the lower leg. The stimulus level was from 10 to 90 dB in 5 dB steps, and the tone-pip frequencies were 4, 24, and 32 kHz. The ceiling sound pressure level was 90 dB. ABR threshold was observed by visual inspection of stacked waveforms as the lowest sound pressure level, at which the waveform was above the noise floor.\nAn aqueous composition of 0.5M sodium thiosulfate/2% (w/v) hyaluronan (STS Composition) or vehicle was dosed intratympanically onto the round window in the left ear (LE) as described above, and the right ear (RE) was left untreated in the guinea pigs (FIG. 5).\nBecause of heterogeneity of hearing loss after cisplatin challenge, the untreated right ears was used to select the animals with hearing loss. There were 21 animals with right ear threshold >60 dB at 32 kHz. Of these 21 animals, 3 with otitis media were excluded, leaving 18 animals for the final analysis. 10 animals were dosed with vehicle and 8 animals were dosed with STS Composition (FIG. 4B). […]", "data": [{"compound": "O=S([O-])([O-])=S.[Na+].[Na+]", "note": "[sodium thiosulfate]", "values": [{"measurement": "protection (on average)", "value": 80, "unit": "%"}]}]}
